Assay results as given in publication PMC10415144, “Structural insights into CodY activation and DNA recognition” (Nucleic Acids Research, 2023).

Tests used:
[1] = molecular target: T1, SaCodY (Staphylococcus aureus, UniProt Q2FHI3); assay: X-ray crystal structure of complex; format: binding
T1 construct: gene codY; full-length; expressed in E. coli BL21(DE3)pLysS; N-terminal His6-tag cut with TEV protease, Gly-Ala remnant before start Met

[2] = molecular target: T2, EfCodY (Enterococcus faecalis, UniProt Q834K5); assay: bio-layer interferometry, reduction of Leu-activated binding to hutP operator DNA; format: biochemical; details: 2 mM GTP with 10 mM Leu; pH 8, 2 mM MgCl2, 25 °C; negative effect, binding to protein only presumed
T2 construct: gene codY; full-length; expressed in E. coli BL21(DE3)pLysS; N-terminal His6-tag cut with TEV protease, Gly-Ala remnant before start Met; two dimers on 30-bp DNA
T2 sequence (Q834K5 entry or part of it): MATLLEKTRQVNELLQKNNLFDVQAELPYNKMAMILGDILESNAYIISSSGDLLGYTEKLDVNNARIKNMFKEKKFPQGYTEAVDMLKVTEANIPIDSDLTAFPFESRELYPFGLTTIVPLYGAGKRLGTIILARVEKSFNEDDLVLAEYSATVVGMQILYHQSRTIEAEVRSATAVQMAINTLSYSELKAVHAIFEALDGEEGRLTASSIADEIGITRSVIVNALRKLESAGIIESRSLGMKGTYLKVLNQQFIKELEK

[3] = molecular target: T2, EfCodY; assay: X-ray crystal structure of complex; format: binding; details: co-crystal with 30-bp DNA; 4 mM Leu; GAF domain BCAA site of protomers A and B only
[4] = molecular target: T1, SaCodY; assay: bio-layer interferometry, activation of binding to hutP operator DNA; format: biochemical; details: 10 mM Leu with 2 mM GTP; pH 8, 2 mM MgCl2, 25 °C; allosteric activator
[5] = molecular target: T2, EfCodY; assay: Leu binding assay (method in supplement); details: compared with Lys74Ala mutant; details only in supplement

T1 sequence (Q2FHI3 whole entry): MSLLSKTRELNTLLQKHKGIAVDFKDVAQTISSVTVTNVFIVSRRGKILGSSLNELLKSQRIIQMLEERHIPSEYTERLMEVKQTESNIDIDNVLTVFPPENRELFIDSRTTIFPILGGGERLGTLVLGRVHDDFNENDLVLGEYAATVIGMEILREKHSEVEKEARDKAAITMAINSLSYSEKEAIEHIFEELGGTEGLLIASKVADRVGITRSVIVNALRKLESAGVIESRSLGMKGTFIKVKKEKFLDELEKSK

In the case of Nc1nc2c(ncn2[C@@H]2O[C@H](COP(=O)(O)OP(=O)(O)OP(=O)(O)O)[C@@H](O)[C@H]2O)c(=O)[nH]1 [GTP], the “X-ray crystal structure of complex” value ([1]; co-crystal with Ile and 30-bp DNA, 2 mM GTP, GAF domain near dimer interface, allosteric) is reported as “The SaCodY-DNA complex was co-crystallized with Ile and GTP” and the “bio-layer interferometry, reduction of Leu-activated binding to hutP operator DN” value [2] is reported as “Together with Leu, GTP reduced activation, presumably by interacting with the protein”.

With CC[C@H](C)[C@H](N)C(=O)O [Ile] the “X-ray crystal structure of complex” value ([1]; co-crystal with GTP and 30-bp DNA, 20 mM Ile, GAF domain BCAA site) was “The SaCodY-DNA complex was co-crystallized with Ile and GTP”.

With CC(C)C[C@H](N)C(=O)O [Leu] the “X-ray crystal structure of complex” value [3] was “EfCodY complex was co-crystallized in the presence of Leu, yet Leu bound only to protomers”, the “bio-layer interferometry, activation of binding to hutP operator DNA” value [4] was “SaCodY was activated by Ile (and to a lesser extent by Leu) and GTP” and the affinity [5] was “the mutant binds Leu with comparable affinity to the wild type”.
